The values that follow come from patent US12384808B2, “Modulators of TNF-α activity” (Forward Therapeutics, Inc., priority 2022, dated 2025).

TNFα, sequence (P01375 77-233 limits assumed): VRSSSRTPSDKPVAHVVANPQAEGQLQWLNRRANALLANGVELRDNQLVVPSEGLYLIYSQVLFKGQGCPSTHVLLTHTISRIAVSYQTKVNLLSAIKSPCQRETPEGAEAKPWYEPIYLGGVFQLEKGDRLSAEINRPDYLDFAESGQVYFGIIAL

This assay has as its target TNFα (Homo sapiens, UniProt P01375). Briefly: TNFα Induced HEK Blue Cellular Assay. Format: cell-based. The following applies: HEK Blue TNFα reporter cells, TNFα 100 pg/ml, 24 hrs at 37° C., secreted alkaline phosphatase (QUANTI-Blue) read at 620 nm; read-out: IC50 value. A digest of the protocol:
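IC50 fitted with a 4-parameter logistic model from % inhibition, normalised to DMSO controls with and without stimulation. Readout: QUANTI-Blue SEAP at 620 nm after 24 h, 37 °C exposure to TNFα (100 pg/ml final) and test compound at […]–0.5 nM final.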
In general, IC50 refers to the concentration that inhibits the measured activity by half. Regarding `CN1C(=O)c2cccc(OC(F)F)c2[C@H]2C[C@@H]1c1nc3ccc(-c4ccc(CP(C)(C)=O)cc4)cc3n12` [Example 33, (1R,11R)-18-(difluoromethoxy)-5-{4-[(dimethylphosphoryl)methyl]phenyl}-12-methyl-2,9,12-triazapentacyclo[9.8.1.0^{2,10}.0^{3,8}.0^{14,19}]icosa-3(8),4,6,9,14(19),15,17-heptaen-13-one], the 50% inhibitory concentration (IC50) is < 0.1 µM.
With `CP(C)(=O)c1ccc(-c2ccc3nc4n(c3c2)[C@@H]2C[C@H]4NC(=O)c3cccc(OC(F)F)c32)c(F)c1F` [Example 34, (1R,11R)-18-(difluoromethoxy)-5-[4-(dimethylphosphoryl)-2,3-difluorophenyl]-2,9,12-triazapentacyclo[9.8.1.0^{2,10}.0^{3,8}.0^{14,19}]icosa-3(8),4,6,9,14(19),15,17-heptaen-13-one], the 50% inhibitory concentration (IC50) was < 0.1 µM.
The result for `CP(C)(=O)c1c(F)cc(-c2ccc3nc4n(c3c2)[C@@H]2C[C@H]4NC(=O)c3cccc(OC(F)F)c32)cc1F` [Example 35, (1R,11R)-18-(difluoromethoxy)-5-[4-(dimethylphosphoryl)-3,5-difluorophenyl]-2,9,12-triazapentacyclo[9.8.1.0^{2,10}.0^{3,8}.0^{14,19}]icosa-3(8),4,6,9,14(19),15,17-heptaen-13-one] reads 0.1 to 1 µM; that for `CN1C(=O)c2cccc(OC(F)F)c2[C@H]2C[C@@H]1c1nc3ccc(-c4ccc(P(C)(C)=O)c(F)c4F)cc3n12` [Example 36, (1R,11R)-18-(difluoromethoxy)-5-[4-(dimethylphosphoryl)-2,3-difluorophenyl]-12-methyl-2,9,12-triazapentacyclo[9.8.1.0^{2,10}.0^{3,8}.0^{14,19}]icosa-3(8),4,6,9,14(19),15,17-heptaen-13-one], < 0.1 µM.
As for `CN1C(=O)c2cccc(OC(F)F)c2[C@H]2C[C@@H]1c1nc3ccc(-c4cc(F)c(P(C)(C)=O)c(F)c4)cc3n12` [Example 37, (1R,11R)-18-(difluoromethoxy)-5-[4-(dimethylphosphoryl)-3,5-difluorophenyl]-12-methyl-2,9,12-triazapentacyclo[9.8.1.0^{2,10}.0^{3,8}.0^{14,19}]icosa-3(8),4,6,9,14(19),15,17-heptaen-13-one], the half-inhibitory concentration (IC50) is < 0.1 µM.
Under `CN1C(=O)c2cccc(OC(F)F)c2[C@H]2C[C@@H]1c1nc3ccc(-c4ccc(OCP(C)(C)=O)cc4)cc3n12` [Example 38, (1R,11R)-18-(difluoromethoxy)-5-{4-[(dimethylphosphoryl)methoxy]phenyl}-12-methyl-2,9,12-triazapentacyclo[9.8.1.0^{2,10}.0^{3,8}.0^{14,19}]icosa-3(8),4,6,9,14(19),15,17-heptaen-13-one] stands < 0.1 µM.
Consider `CN1C(=O)c2cccc(OC(F)F)c2[C@H]2C[C@@H]1c1nc3ccc(-c4ccc(OCCP(C)(C)=O)nc4)cc3n12` [Example 39, (1R,11R)-18-(difluoromethoxy)-5-{6-[2-(dimethylphosphoryl)ethoxy]pyridin-3-yl}-12-methyl-2,9,12-triazapentacyclo[9.8.1.0^{2,10}.0^{3,8}.0^{14,19}]icosa-3(8),4,6,9,14(19),15,17-heptaen-13-one], for which the half-maximal inhibitory concentration (IC50) was < 0.1 µM.
With `CN1C(=O)c2cccc(OC(F)F)c2[C@H]2C[C@@H]1c1nc3ccc(-c4ccc(OCCCP(C)(C)=O)nc4)cc3n12` [Example 40, (1R,11R)-18-(difluoromethoxy)-5-{6-[3-(dimethylphosphoryl)propoxy]pyridin-3-yl}-12-methyl-2,9,12-triazapentacyclo[9.8.1.0^{2,10}.0^{3,8}.0^{14,19}]icosa-3(8),4,6,9,14(19),15,17-heptaen-13-one], the IC50 lay in the range of 0.1 to 1 µM.
The result for `CP(C)(=O)c1ccc(-c2ccc3nc4n(c3c2)[C@@H]2C[C@H]4NC(=O)c3cccc(OC(F)F)c32)c(Cl)c1` [Example 41, (1R,11R)-5-[2-chloro-4-(dimethylphosphoryl)phenyl]-18-(difluoromethoxy)-2,9,12-triazapentacyclo[9.8.1.0^{2,10}.0^{3,8}.0^{14,19}]icosa-3(8),4,6,9,14(19),15,17-heptaen-13-one] reads < 0.1 µM; that for `CP(C)(=O)COc1ncc(-c2ccc3nc4n(c3c2)[C@@H]2C[C@H]4NC(=O)c3cccc(OC(F)F)c32)s1` [Example 42, (1R,11R)-18-(difluoromethoxy)-5-{2-[(dimethylphosphoryl)methoxy]-1,3-thiazol-5-yl}-2,9,12-triazapentacyclo[9.8.1.0^{2,10}.0^{3,8}.0^{14,19}]icosa-3(8),4,6,9,14(19),15,17-heptaen-13-one], < 0.1 µM.
Under `CP(C)(=O)c1ccc(-c2ccc3nc4n(c3c2)[C@@H]2C[C@H]4NC(=O)c3cccc(OC(F)F)c32)cc1F` [Example 43, (1R,11R)-18-(difluoromethoxy)-5-[4-(dimethylphosphoryl)-3-fluorophenyl]-2,9,12-triazapentacyclo[9.8.1.0^{2,10}.0^{3,8}.0^{14,19}]icosa-3(8),4,6,9,14(19),15,17-heptaen-13-one] stands < 0.1 µM; under `CCN1C(=O)c2cccc(OC(F)F)c2[C@H]2C[C@@H]1c1nc3ccc(-c4ccc(OCP(C)(C)=O)cc4)cc3n12` [Example 44, (1R,11R)-18-(difluoromethoxy)-5-{4-[(dimethylphosphoryl)methoxy]phenyl}-12-ethyl-2,9,12-triazapentacyclo[9.8.1.0^{2,10}.0^{3,8}.0^{14,19}]icosa-3(8),4,6,9,14(19),15,17-heptaen-13-one], < 0.1 µM.
The result for `CCN1C(=O)c2cccc(OC(F)F)c2[C@H]2C[C@@H]1c1nc3ccc(-c4ccc(P(C)(C)=O)c(F)c4)cc3n12` [Example 45, (1R,11R)-18-(difluoromethoxy)-5-[4-(dimethylphosphoryl)-3-fluorophenyl]-12-ethyl-2,9,12-triazapentacyclo[9.8.1.0^{2,10}.0^{3,8}.0^{14,19}]icosa-3(8),4,6,9,14(19),15,17-heptaen-13-one] reads < 0.1 µM; that for `CCN1C(=O)c2cccc(OC(F)F)c2[C@H]2C[C@@H]1c1nc3ccc(-c4cc(F)c(P(C)(C)=O)c(F)c4)cc3n12` [Example 46, (1R,11R)-18-(difluoromethoxy)-5-[4-(dimethylphosphoryl)-3,5-difluorophenyl]-12-ethyl-2,9,12-triazapentacyclo[9.8.1.0^{2,10}.0^{3,8}.0^{14,19}]icosa-3(8),4,6,9,14(19),15,17-heptaen-13-one], < 0.1 µM; that for `CP(C)(=O)c1ccc(-c2ccc3nc4n(c3c2)[C@@H]2C[C@H]4N(C3CC3)C(=O)c3cccc(OC(F)F)c32)cn1` [Example 47, (1R,11R)-12-cyclopropyl-18-(difluoromethoxy)-5-[6-(dimethylphosphoryl)pyridin-3-yl]-2,9,12-triazapentacyclo[9.8.1.0^{2,10}.0^{3,8}.0^{14,19}]icosa-3(8),4,6,9,14(19),15,17-heptaen-13-one], < 0.1 µM.
As for `CP(C)(=O)c1ccc(-c2ccc3nc4n(c3c2)[C@@H]2C[C@H]4N(C3CC3)C(=O)c3cccc(OC(F)F)c32)cc1F` [Example 48, (1R,11R)-12-cyclopropyl-18-(difluoromethoxy)-5-[4-(dimethylphosphoryl)-3-fluorophenyl]-2,9,12-triazapentacyclo[9.8.1.0^{2,10}.0^{3,8}.0^{14,19}]icosa-3(8),4,6,9,14(19),15,17-heptaen-13-one], the concentration for half-maximal inhibition (IC50) was < 0.1 µM.
The result for `CCN1C(=O)c2cccc(OC(F)F)c2[C@H]2C[C@@H]1c1nc3ccc(-c4ccc(P(C)(C)=O)cc4)cc3n12` [Example 49, (1R,11R)-18-(difluoromethoxy)-5-[4-(dimethylphosphoryl)phenyl]-12-ethyl-2,9,12-triazapentacyclo[9.8.1.0^{2,10}.0^{3,8}.0^{14,19}]icosa-3(8),4,6,9,14(19),15,17-heptaen-13-one] reads < 0.1 µM; that for `CN1C(=O)c2cccc(OC(F)F)c2[C@H]2C[C@@H]1c1nc3ccc(-c4ccc(NP(C)(C)=O)cc4)cc3n12` [Example 50, (1R,11R)-18-(difluoromethoxy)-5-{4-[(dimethylphosphoryl)amino]phenyl}-12-methyl-2,9,12-triazapentacyclo[9.8.1.0^{2,10}.0^{3,8}.0^{14,19}]icosa-3(8),4,6,9,14(19),15,17-heptaen-13-one], < 0.1 µM; that for `CCP(=O)(CC)c1ccc(-c2ccc3nc4n(c3c2)[C@@H]2C[C@H]4NC(=O)c3cccc(OC(F)F)c32)cc1F` [Example 51, (1R,11R)-5-[4-(diethylphosphoryl)-3-fluorophenyl]-18-(difluoromethoxy)-2,9,12-triazapentacyclo[9.8.1.0^{2,10}.0^{3,8}.0^{14,19}]icosa-3(8),4,6,9,14(19),15,17-heptaen-13-one], < 0.1 µM.
Consider `[2H]C([2H])([2H])N1C(=O)c2cccc(OC(F)F)c2[C@H]2C[C@@H]1c1nc3ccc(-c4ccc(P(C)(C)=O)c(F)c4F)cc3n12` [Example 52, (7R,14R)-1-(difluoromethoxy)-11-(4-(dimethylphosphoryl)-2,3-difluorophenyl)-6-(methyl-d3)-6,7-dihydro-7,14-methanobenzo[f]benzo[4,5]imidazo[1,2-a][1,4]diazocin-5(14H)-one], for which the concentration for half-maximal inhibition (IC50) was < 0.1 µM.
Consider `[2H]C([2H])([2H])N1C(=O)c2cccc(OC(F)F)c2[C@H]2C[C@@H]1c1nc3ccc(-c4ccc(P(C)(C)=O)cc4F)cc3n12` [Example 53, (7R,14R)-1-(difluoromethoxy)-11-(4-(dimethylphosphoryl)-2-fluorophenyl)-6-(methyl-d3)-6,7-dihydro-7,14-methanobenzo[f]benzo[4,5]imidazo[1,2-a][1,4]diazocin-5(14H)-one], for which the IC50 was < 0.1 µM.
As for `[2H]C([2H])([2H])N1C(=O)c2cccc(OC(F)F)c2[C@H]2C[C@@H]1c1nc3ccc(-c4cc(F)c(P(C)(C)=O)cc4F)cc3n12` [Example 54, (7R,14R)-1-(difluoromethoxy)-11-(4-(dimethylphosphoryl)-2,5-difluorophenyl)-6-(methyl-d3)-6,7-dihydro-7,14-methanobenzo[f]benzo[4,5]imidazo[1,2-a][1,4]diazocin-5(14H)-one], the IC50 is < 0.1 µM.
